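Results reflect a 48-hour exposure of cells in 96-well plates to compound at five concentrations. TGI is the concentration that stops growth completely.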
test system: HOP-62 NSCLC; assay: NCI tumour cell line growth inhibition, 48 h

Row | SMILES | TGI
1 | COc1ccc(N2C(=O)C3c4[nH]c5ccccc5c4C4CCC(C(C)(C)C)CC4C3C2=O)c(C)c1 (centres undefined) | > 100 µM
2 | Cc1ccsc1/C=N/Nc1ncccn1 | > 100 µM
3 | O=C1C(=Cc2ccc(O)cc2)N=C(c2ccccc2)N1n1c(-c2ccccc2)nc2ccccc2c1=O | > 100 µM
4 | O=C(O)CSc1ccc([N+](=O)[O-])cc1[N+](=O)[O-] | > 100 µM
5 | Nc1ccccc1SC(C[N+](=O)[O-])c1ccc2c(c1)OCO2 (centres undefined) | 4.38 µM

test system: HOP-92 NSCLC; assay: NCI tumour cell line growth inhibition, 48 h

Row | SMILES | TGI
6 | O=c1[nH]cc(N=Cc2cc(Cl)cc(Cl)c2O)c(=O)[nH]1 | 89 µM
7 | Cc1ccsc1/C=N/Nc1ncccn1 | > 100 µM
8 | O=C(O)CSc1ccc([N+](=O)[O-])cc1[N+](=O)[O-] | > 100 µM
9 | Nc1ccccc1SC(C[N+](=O)[O-])c1ccc2c(c1)OCO2 (centres undefined) | 30.2 µM

test system: HS 578T breast; assay: NCI tumour cell line growth inhibition, 48 h

Row | SMILES | TGI
10 | O=c1[nH]cc(N=Cc2cc(Cl)cc(Cl)c2O)c(=O)[nH]1 | 67.1 µM
11 | Oc1ccc(-c2nc(-c3cccnc3)c(-c3ccc(F)cc3)[nH]2)cc1 | 46.4 µM
12 | COc1ccc(N2C(=O)C3c4[nH]c5ccccc5c4C4CCC(C(C)(C)C)CC4C3C2=O)c(C)c1 (centres undefined) | > 100 µM
13 | Cc1ccsc1/C=N/Nc1ncccn1 | > 100 µM
14 | O=C1C(=Cc2ccc(O)cc2)N=C(c2ccccc2)N1n1c(-c2ccccc2)nc2ccccc2c1=O | > 100 µM
15 | O=C(O)CSc1ccc([N+](=O)[O-])cc1[N+](=O)[O-] | > 100 µM
16 | Nc1ccccc1SC(C[N+](=O)[O-])c1ccc2c(c1)OCO2 (centres undefined) | 36.8 µM

test system: HT29 colon; assay: NCI tumour cell line growth inhibition, 48 h

Row | SMILES | TGI
17 | O=c1[nH]cc(N=Cc2cc(Cl)cc(Cl)c2O)c(=O)[nH]1 | 60.8 µM
18 | Oc1ccc(-c2nc(-c3cccnc3)c(-c3ccc(F)cc3)[nH]2)cc1 | 32.5 µM
19 | COc1ccc(N2C(=O)C3c4[nH]c5ccccc5c4C4CCC(C(C)(C)C)CC4C3C2=O)c(C)c1 (centres undefined) | > 100 µM
20 | Cc1ccsc1/C=N/Nc1ncccn1 | > 100 µM
21 | O=C1C(=Cc2ccc(O)cc2)N=C(c2ccccc2)N1n1c(-c2ccccc2)nc2ccccc2c1=O | > 100 µM
22 | O=C(O)CSc1ccc([N+](=O)[O-])cc1[N+](=O)[O-] | > 100 µM
23 | Nc1ccccc1SC(C[N+](=O)[O-])c1ccc2c(c1)OCO2 (centres undefined) | 3.81 µM

test system: IGROV1 ovarian; assay: NCI tumour cell line growth inhibition, 48 h

Row | SMILES | TGI
24 | O=c1[nH]cc(N=Cc2cc(Cl)cc(Cl)c2O)c(=O)[nH]1 | 50.1 µM
25 | Oc1ccc(-c2nc(-c3cccnc3)c(-c3ccc(F)cc3)[nH]2)cc1 | 33.8 µM
26 | COc1ccc(N2C(=O)C3c4[nH]c5ccccc5c4C4CCC(C(C)(C)C)CC4C3C2=O)c(C)c1 (centres undefined) | > 100 µM
27 | Cc1ccsc1/C=N/Nc1ncccn1 | > 100 µM
28 | O=C1C(=Cc2ccc(O)cc2)N=C(c2ccccc2)N1n1c(-c2ccccc2)nc2ccccc2c1=O | > 100 µM
29 | O=C(O)CSc1ccc([N+](=O)[O-])cc1[N+](=O)[O-] | > 100 µM
30 | Nc1ccccc1SC(C[N+](=O)[O-])c1ccc2c(c1)OCO2 (centres undefined) | 3.2 µM

test system: K-562 leukemia; assay: NCI tumour cell line growth inhibition, 48 h

Row | SMILES | TGI
31 | O=c1[nH]cc(N=Cc2cc(Cl)cc(Cl)c2O)c(=O)[nH]1 | > 100 µM
32 | Oc1ccc(-c2nc(-c3cccnc3)c(-c3ccc(F)cc3)[nH]2)cc1 | 54.6 µM
33 | COc1ccc(N2C(=O)C3c4[nH]c5ccccc5c4C4CCC(C(C)(C)C)CC4C3C2=O)c(C)c1 (centres undefined) | > 100 µM
34 | Cc1ccsc1/C=N/Nc1ncccn1 | > 100 µM
35 | O=C(O)CSc1ccc([N+](=O)[O-])cc1[N+](=O)[O-] | > 100 µM
36 | Nc1ccccc1SC(C[N+](=O)[O-])c1ccc2c(c1)OCO2 (centres undefined) | 7 µM

test system: KM12 colon; assay: NCI tumour cell line growth inhibition, 48 h

Row | SMILES | TGI
37 | O=c1[nH]cc(N=Cc2cc(Cl)cc(Cl)c2O)c(=O)[nH]1 | 85 µM
38 | Oc1ccc(-c2nc(-c3cccnc3)c(-c3ccc(F)cc3)[nH]2)cc1 | 33.2 µM
39 | COc1ccc(N2C(=O)C3c4[nH]c5ccccc5c4C4CCC(C(C)(C)C)CC4C3C2=O)c(C)c1 (centres undefined) | > 100 µM
40 | Cc1ccsc1/C=N/Nc1ncccn1 | > 100 µM
41 | O=C1C(=Cc2ccc(O)cc2)N=C(c2ccccc2)N1n1c(-c2ccccc2)nc2ccccc2c1=O | > 100 µM
42 | O=C(O)CSc1ccc([N+](=O)[O-])cc1[N+](=O)[O-] | > 100 µM
43 | Nc1ccccc1SC(C[N+](=O)[O-])c1ccc2c(c1)OCO2 (centres undefined) | 6.31 µM

test system: LOX IMVI melanoma; assay: NCI tumour cell line growth inhibition, 48 h

Row | SMILES | TGI
44 | Oc1ccc(-c2nc(-c3cccnc3)c(-c3ccc(F)cc3)[nH]2)cc1 | 28.5 µM
45 | Cc1ccsc1/C=N/Nc1ncccn1 | > 100 µM
46 | O=C1C(=Cc2ccc(O)cc2)N=C(c2ccccc2)N1n1c(-c2ccccc2)nc2ccccc2c1=O | > 100 µM
47 | O=C(O)CSc1ccc([N+](=O)[O-])cc1[N+](=O)[O-] | > 100 µM
48 | Nc1ccccc1SC(C[N+](=O)[O-])c1ccc2c(c1)OCO2 (centres undefined) | 3.68 µM

test system: M14 melanoma; assay: NCI tumour cell line growth inhibition, 48 h

Row | SMILES | TGI
49 | O=c1[nH]cc(N=Cc2cc(Cl)cc(Cl)c2O)c(=O)[nH]1 | 47.8 µM
50 | Oc1ccc(-c2nc(-c3cccnc3)c(-c3ccc(F)cc3)[nH]2)cc1 | 32.9 µM
51 | COc1ccc(N2C(=O)C3c4[nH]c5ccccc5c4C4CCC(C(C)(C)C)CC4C3C2=O)c(C)c1 (centres undefined) | > 100 µM
52 | Cc1ccsc1/C=N/Nc1ncccn1 | > 100 µM
53 | O=C1C(=Cc2ccc(O)cc2)N=C(c2ccccc2)N1n1c(-c2ccccc2)nc2ccccc2c1=O | > 100 µM
54 | O=C(O)CSc1ccc([N+](=O)[O-])cc1[N+](=O)[O-] | > 100 µM
55 | Nc1ccccc1SC(C[N+](=O)[O-])c1ccc2c(c1)OCO2 (centres undefined) | 3.15 µM

test system: MALME-3M melanoma; assay: NCI tumour cell line growth inhibition, 48 h

Row | SMILES | TGI
56 | O=c1[nH]cc(N=Cc2cc(Cl)cc(Cl)c2O)c(=O)[nH]1 | 49.9 µM
57 | Oc1ccc(-c2nc(-c3cccnc3)c(-c3ccc(F)cc3)[nH]2)cc1 | 32.6 µM
58 | Cc1ccsc1/C=N/Nc1ncccn1 | > 100 µM
59 | O=C1C(=Cc2ccc(O)cc2)N=C(c2ccccc2)N1n1c(-c2ccccc2)nc2ccccc2c1=O | > 100 µM
60 | O=C(O)CSc1ccc([N+](=O)[O-])cc1[N+](=O)[O-] | > 100 µM
61 | Nc1ccccc1SC(C[N+](=O)[O-])c1ccc2c(c1)OCO2 (centres undefined) | 29.8 µM

test system: MCF7 breast; assay: NCI tumour cell line growth inhibition, 48 h

Row | SMILES | TGI
62 | O=c1[nH]cc(N=Cc2cc(Cl)cc(Cl)c2O)c(=O)[nH]1 | > 100 µM
63 | Oc1ccc(-c2nc(-c3cccnc3)c(-c3ccc(F)cc3)[nH]2)cc1 | 32.7 µM
64 | COc1ccc(N2C(=O)C3c4[nH]c5ccccc5c4C4CCC(C(C)(C)C)CC4C3C2=O)c(C)c1 (centres undefined) | > 100 µM
65 | Cc1ccsc1/C=N/Nc1ncccn1 | > 100 µM
66 | O=C1C(=Cc2ccc(O)cc2)N=C(c2ccccc2)N1n1c(-c2ccccc2)nc2ccccc2c1=O | > 100 µM
67 | O=C(O)CSc1ccc([N+](=O)[O-])cc1[N+](=O)[O-] | > 100 µM
68 | Nc1ccccc1SC(C[N+](=O)[O-])c1ccc2c(c1)OCO2 (centres undefined) | 12.4 µM

test system: MDA-MB-231 breast; assay: NCI tumour cell line growth inhibition, 48 h

Row | SMILES | TGI
69 | O=c1[nH]cc(N=Cc2cc(Cl)cc(Cl)c2O)c(=O)[nH]1 | > 100 µM
70 | Oc1ccc(-c2nc(-c3cccnc3)c(-c3ccc(F)cc3)[nH]2)cc1 | 41.7 µM
71 | COc1ccc(N2C(=O)C3c4[nH]c5ccccc5c4C4CCC(C(C)(C)C)CC4C3C2=O)c(C)c1 (centres undefined) | > 100 µM
72 | Cc1ccsc1/C=N/Nc1ncccn1 | > 100 µM
73 | O=C1C(=Cc2ccc(O)cc2)N=C(c2ccccc2)N1n1c(-c2ccccc2)nc2ccccc2c1=O | > 100 µM
74 | O=C(O)CSc1ccc([N+](=O)[O-])cc1[N+](=O)[O-] | > 100 µM
75 | Nc1ccccc1SC(C[N+](=O)[O-])c1ccc2c(c1)OCO2 (centres undefined) | 20 µM

test system: MDA-MB-435; assay: NCI tumour cell line growth inhibition, 48 h

Row | SMILES | TGI
76 | O=c1[nH]cc(N=Cc2cc(Cl)cc(Cl)c2O)c(=O)[nH]1 | 61.8 µM
77 | Oc1ccc(-c2nc(-c3cccnc3)c(-c3ccc(F)cc3)[nH]2)cc1 | 31.1 µM
78 | COc1ccc(N2C(=O)C3c4[nH]c5ccccc5c4C4CCC(C(C)(C)C)CC4C3C2=O)c(C)c1 (centres undefined) | > 100 µM
79 | Cc1ccsc1/C=N/Nc1ncccn1 | > 100 µM
80 | O=C1C(=Cc2ccc(O)cc2)N=C(c2ccccc2)N1n1c(-c2ccccc2)nc2ccccc2c1=O | > 100 µM
81 | O=C(O)CSc1ccc([N+](=O)[O-])cc1[N+](=O)[O-] | > 100 µM
82 | Nc1ccccc1SC(C[N+](=O)[O-])c1ccc2c(c1)OCO2 (centres undefined) | 9.35 µM

test system: MDA-N; assay: NCI tumour cell line growth inhibition, 48 h

Row | SMILES | TGI
83 | O=c1[nH]cc(N=Cc2cc(Cl)cc(Cl)c2O)c(=O)[nH]1 | 93.1 µM
84 | Oc1ccc(-c2nc(-c3cccnc3)c(-c3ccc(F)cc3)[nH]2)cc1 | 37.5 µM
85 | COc1ccc(N2C(=O)C3c4[nH]c5ccccc5c4C4CCC(C(C)(C)C)CC4C3C2=O)c(C)c1 (centres undefined) | > 100 µM
86 | Cc1ccsc1/C=N/Nc1ncccn1 | > 100 µM
87 | O=C1C(=Cc2ccc(O)cc2)N=C(c2ccccc2)N1n1c(-c2ccccc2)nc2ccccc2c1=O | > 100 µM
88 | O=C(O)CSc1ccc([N+](=O)[O-])cc1[N+](=O)[O-] | > 100 µM
89 | Nc1ccccc1SC(C[N+](=O)[O-])c1ccc2c(c1)OCO2 (centres undefined) | 4.63 µM

test system: MOLT-4 leukemia; assay: NCI tumour cell line growth inhibition, 48 h

Row | SMILES | TGI
90 | O=c1[nH]cc(N=Cc2cc(Cl)cc(Cl)c2O)c(=O)[nH]1 | 69.7 µM
91 | Oc1ccc(-c2nc(-c3cccnc3)c(-c3ccc(F)cc3)[nH]2)cc1 | 33.2 µM
92 | COc1ccc(N2C(=O)C3c4[nH]c5ccccc5c4C4CCC(C(C)(C)C)CC4C3C2=O)c(C)c1 (centres undefined) | > 100 µM
93 | Cc1ccsc1/C=N/Nc1ncccn1 | > 100 µM
94 | O=C1C(=Cc2ccc(O)cc2)N=C(c2ccccc2)N1n1c(-c2ccccc2)nc2ccccc2c1=O | > 100 µM
